Source: patent US9603872B2, “Methods and compositions for mitochondrial replacement therapy” (The McLeon Hospital Corporation, priority 2007, dated 2017)
“And” between values parts separate entries of the source, which are not always exact repeats. Equal entries are not always repeated. “Also recorded” adds a separate entry of the source. Where two headings read alike, the source gives them in different places.

Key:
control fibroblasts [1] = settings: H2O2 treated
Description: (§1) Loss of red JC1 signal relative to monomeric green JC1 indicates collapse of mitochondrial membrane […] (Smiley et al., Proc. Natl. Acad. Sci. 88:3671-3675 (1991) and Cossarizza et al., Biochem. Biophys. Res. Comm. 197:40-45 (1993)).
ATP production was measured in cultured fibroblast lines using the Roche ATP Bioluminescence assay kit CLSII following the manufacturer's protocol (Roche Diagnostics, Mannheim, Germany). Briefly, cells were plated at a concentration of 2.5×10^5 cellsper 60 mm dish were used for each experiment and experiments were conducted two days later. Cell lysis was achieved by boiling in lysis solution ([…], 4 mM EDTA, pH=7.75) followed by incubation for 2 min at 100° C. The cells then were centrifuges spun at 1000×g for 1 min. The supernatants were used for total cell ATP determination. Samples were run in triplicate on a 96-well plate MLX luminometer (Dynex Technologies, Chantilly, Va., USA). Integration was delayed for 1 sec after the addition of luciferase and luminescence was measured for 10 seconds at an emission maximum of […]. Following ATP luminescence measurements, data was normalized to protein concentration as determined by the method of Bradford (Bradford DC assay, BioRad, Temecula, Calif., USA) to yield nanograms of ATP per mg of protein. Assays were performed in triplicate. […]

[2] = tested on: fibroblasts from BD patients; assay: Mitochondrial morphology by MitoTracker 7510 after metabolic stress; format: cell-based, human
Description: (§2) The fluorescent marker, MitoTracker-[…] Fibroblasts (n=6) and lymphocytes (n=6) from patients with BD and age-matched controls (Fibroblasts, n=6; lymphocytes, n=6)) were exposed to hydrocortisone to induce mitochondrial stress (REFS). Hydrocortisone (Sigma H0888, St. Louis, Mo., USA) was dissolved in 50% ethanol/50% culture medium to yield a 40 mM stock solution. Hydrocortisone was then diluted to appropriate experimental concentrations (10 nM, 1 uM, 100 uM) with above described growth media. Confluent (85-95%) fibroblasts and lymphocytes (1×10^5 ? 1×10^6) were treated for 24 hr with hydrocortisone (sub-acute stress). Cells treated with vehicle (25% ethanol) alone served as controls. Following hydrocortisone treatment, fibroblasts were examined for alterations in mitochondrial morphology, membrane potential, and ATP levels, as described above. All experiments were performed in triplicate. […] ATP levels were assayed as described above.

control fibroblasts [3] = assay: as above; format: cell-based, human
Description: as §2

[4] = tested on: fibroblasts from BD subjects; assay: ATP levels by bioluminescence (luciferase) assay after metabolic stress; format: cell-based, human
Description: as §1
ATP production was measured in cultured fibroblast lines using the Roche ATP Bioluminescence assay kit CLSII following the manufacturer's protocol (Roche Diagnostics, Mannheim, Germany). Briefly, cells were plated at a concentration of 2.5×10^5 cellsper 60 mm dish were used for each experiment and experiments were conducted two days later. Cell lysis was achieved by boiling in lysis solution ([…], 4 mM EDTA, pH=7.75) followed by incubation for 2 min at 100° C. The cells then were centrifuges spun at 1000×g for 1 min. The supernatants were used for total cell ATP determination. Samples were run in triplicate on a 96-well plate MLX luminometer (Dynex Technologies, Chantilly, Va., USA). Integration was delayed for 1 sec after the addition of luciferase and luminescence was measured for 10 seconds at an emission maximum of […]. Following ATP luminescence measurements, data was normalized to protein concentration as determined by the method of Bradford (Bradford DC assay, BioRad, Temecula, Calif., USA) to yield nanograms of ATP per mg of protein. Assays were performed in triplicate.
(§3) Fibroblasts (n=6) and lymphocytes (n=6) from patients with BD and age-matched controls (Fibroblasts, n=6; lymphocytes, n=6)) were exposed to hydrocortisone to induce mitochondrial stress (REFS). Hydrocortisone (Sigma H0888, St. Louis, Mo., USA) was dissolved in 50% ethanol/50% culture medium to yield a 40 mM stock solution. Hydrocortisone was then diluted to appropriate experimental concentrations (10 nM, 1 uM, 100 uM) with above described growth media. Confluent (85-95%) fibroblasts and lymphocytes (1×10^5 ? 1×10^6) were treated for 24 hr with hydrocortisone (sub-acute stress). Cells treated with vehicle (25% ethanol) alone served as controls. Following hydrocortisone treatment, fibroblasts were examined for alterations in mitochondrial morphology, membrane potential, and ATP levels, as described above. All experiments were performed in triplicate.
(§4) We also studied an equal number of fibroblast lines from BD and age-matched controls which were exposed to 100 μM hydrogen peroxide for 24 hrs (REFS). ATP levels were assayed as described above. Light microscopic analysis of JC1 to determine changes in mitochondrial membrane potential also were performed as previously described.

BD fibroblasts = assay: Mitochondrial membrane potential by JC-1 staining after metabolic stress; format: cell-based, human
From the text: as §1
(§5) The cationic fluorescent dye, JC-1 (5,5′,6,6′-tetrachloro-1,1′,3,3′-tetraethylbenzimidazolylcarbocyanine iodide) (Strategene, La Jolla, Calif. USA), was used to detect changes in mitochondrial membrane potential according to manufacturer's protocol. JC-1 reagent produces a red fluorescence (absorption/emission maxima=585/590 nm) after accumulation and aggregation in healthy, non-apoptotic cells with intact mitochondrial membrane potential and localizes to the cytoplasm as green with JC-1 monomers fluorescence (absorption/emission maxima=510/527 nm) in cells with compromised membrane potential. Briefly, cell lines were plated at a concentration of 2.5×10^4 on coverslips and were incubated with a 1:100 dilution of pre-warmed JC1 in growth media for 15 to 20 min at 37° C., 5% CO2. Cells were then rinsed once with assay buffer and mounted in PBS and analyzed immediately on a fluorescence microscopy. The coverslips were placed on standard microscopy slides and viewed immediately using a Zeiss Axiskop 2 epifluorescence microscope.
as §3, §4

[5] = tested on: Control fibroblasts and lymphocytes; settings: 2 mM, 3 and 5 days, light microscopy
Description: Mood stabilizing drugs like lithium are commonly used as treatment for BD (Friedman et al., Biol. Psychiatr. 56:340-348 (2004) and Goodwin et al., JAMA 290:1467-1473 (2003)), and all but one of our subjects with BD was receiving lithium. […] Control fibroblasts and lymphocytes were treated with 2 mM lithium carbonate (LiCO3; approximately twice the average serum level of lithium in patients) for 3 and 5 days. Cells treated with a water vehicle only served as controls.
The fluorescent marker, MitoTracker-M7510 (Invitrogen, Carlsbad Calif.), was used to visualize mitochondria according to manufacturers instructions. Briefly, fibroblasts were plated at 2.5×10^4 and grown on coverslips, subsequently washed one time with pre-warmed growth media and incubated with M7510 at a final concentration of 250 nM in culture media at 37° C., 5% CO2 for 30 min. Cells were then washed once with culture media and fixed in 4% paraformaldehyde in 100 mM phosphate buffer pH 7.4 for 15 min. Following fixation, coverslips were rinsed two times in PBS and mounted in Gel Mount (Biomedia).

[6] = tested on: fibroblasts from healthy individuals; assay: Mitochondrial membrane potential by JC-1 staining after metabolic stress; format: cell-based, human; settings: 100 μM HC, 24 hr
From the text: as §1, §5, §3, §4

[7] = HC treatment, BD and control fibroblasts, data not shown

## OO [H2O2, hydrogen peroxide]
Control fibroblasts [1]
  ATP compared to untreated control cells: no significant difference
Control fibroblasts [1]; method b169: normalized to nanograms of ATP per mg of protein
  ATP levels, mean: 9.9×10^−4
[2]; 100 μM H2O2, 24 hrs
  mitochondrial morphology (MitoTracker 7510) vs untreated cells: almost complete loss of the mitochondrial network, mitochondrial clustering and dramatic mitochondrial fragmentation
Control fibroblasts [3]; 100 μM H2O2, 24 hrs
  mitochondrial morphology (MitoTracker 7510) vs untreated cells: a dispersed mitochondrial network with loss of elongated mitochondrial profiles, increased perinuclear clustering, and increased mitochondrial fragmentation; also recorded: dispersion of the mitochondrial network with loss of elongated mitochondrial profiles
[4]; H2O2 treated, p<0.001
  decrease in ATP levels compared to untreated BD fibroblasts: 83%
[4]; H2O2 treated, p<0.05
  decrease in ATP levels compared to control cells exposed to H2O2: 93%
[4]; H2O2 treated, method b169: normalized to nanograms of ATP per mg of protein
  ATP levels, mean: 6.2×10^−5 and 6.2×10^−4
BD fibroblasts; 100 μM H2O2, 24 hrs
  JC1 staining (mitochondrial membrane integrity): severe loss of mitochondrial membrane integrity

## O=C([O-])[O-].[Li+].[Li+] [LiCO3, lithium carbonate]
[5]
  mitochondrial shape and distribution vs vehicle treated cells: no significant differences in mitochondrial shape and distribution
[5]; listed as lithium
  mitochondrial shape and distribution vs vehicle treated cells: could not be replicated

## C[C@]12CCC(=O)C=C1CC[C@@H]1[C@@H]2[C@@H](O)C[C@@]2(C)[C@H]1CC[C@]2(O)C(=O)CO [hydrocortisone]
[2]; 100 μM HC, 24 hr
  mitochondrial morphology (MitoTracker 7510): perinuclear clustering like that seen in untreated cells but a greater degree of mitochondrial fragmentation
Control fibroblasts [3]; 100 μM HC, 24 hr
  mitochondrial morphology (MitoTracker 7510) vs untreated cells: some loss in the reticular pattern of mitochondria; also recorded: a slight loss in the reticular pattern of the mitochondrial network and greater frequency of perinuclear clustering
[4]; [7]
  differences in ATP levels after treatment: did not reach statistical significance
BD fibroblasts; 100 μM HC, 24 hr
  JC1 staining (red aggregates vs green monomer): an even greater loss of red JC1 mitochondrial aggregates; also recorded: a loss of red JC1 mitochondrial aggregates in the majority of cells
BD fibroblasts; [7]
  ratiometric changes in JC1 after treatment: did not reach statistical significance
[6]
  JC-1 staining (red aggregates vs green monomer) vs untreated cells: loss of red mitochondrial aggregates in most cells; also recorded: loss of red mitochondrial aggregates
